According to patent US20260146029A1, “METHODS FOR THE TREATMENT OR PROPHYLAXIS OF ENDOMETRIOSIS” (Gesynta Pharma AB, priority 2022, published 2026):
Several values for one entry are separate records, joined by “and”; a condition that tells them apart may be missing. Identical values can stand only once.

Tests used:
[1] = system: Marmoset monkeys (Callithrix jacchus), established endometriosis; assay: Colour Doppler ultrasonic scanning of blood flow (bladder area, reproductive tract area); type: in vivo; parameters: key to Individual data on blood flow bladder / Individual data on blood flow repro tract: 0=blood flow not visible; 1=weak blood flow; 2=medium blood flow; 3=massive blood flow; details: for Individual data on blood flow bladder / Individual data on blood flow repro tract: individual animals 1-8 (one line each), 6.67 mg/kg; for Individual data on blood flow bladder / Individual data on blood flow repro tract / Blood flow bladder, median score / Blood flow repro tract, median score: oral 6.67 mg/kg twice/day; for Blood flow bladder, median score / Blood flow repro tract, median score: median of 8 animals, scale 0-3, baseline median 2
Protocol: (§1) The substance as depicted below (prepared according to the procedure in WO 2012/022793 A1) was orally administered (as the hydrogen sulphate salt thereof) for 6 weeks to common marmoset monkeys at a dose of 6.67 mg/kg twice/day (calculated based on the free base, with the actual weight of compound administered calculated as required for the hydrogen sulphate salt).
(§2) The age of the marmosets ranged between 3 and 16 years. All animals were female and had established endometriosis over years. Induction of endometriosis was performed as described in Einspanier et al., Mol Human Reprod., 12(5), 291-9 (2006).
Colour Doppler ultrasonic scanning was done before and 3 times during the treatment period to follow blood flow. Colour doppler scanning was carried out as described by Einspanier (ibid).
Colour Doppler ultrasonic scanning was performed to measure blood flow in the reproductive tract (uterus and ovaries) area as well as in the bladder area.
Individual blood flow measurements are provided in Table 1, 0=blood flow not visible, 1=weak blood flow, 2=medium blood flow and 3=massive blood flow.

[2] = system: Marmoset monkeys (Callithrix jacchus), established endometriosis; assay: Laparotomy assessment of endometriotic lesions (number and size of foci); type: in vivo
Protocol: as §1, §2
Laparotomy was carried out twice, seven weeks before treatment start of treatment and immediately after end of treatment. There was a duration of at least 3 months between each laparotomy.
After pre-medication with Göttinger Mischung M II (Ketamin, Xylazin and Atropin mixture), an inhalation anaesthesia with Isofluran was carried out which last in average 60 minutes. The abdomen was opened beside line alba for 1 cm range to visualise the reproductive tract and bladder. The endometriotic lesions were characterized and documented in pictures. During the second laparoptomy samples from the lesions were collected. Postoperative care of the animals was carried out as required by local law. The collected tissue samples were fixed in paraformaldehyde and embedded in paraffin or stored at −80° C. Before abdominal suture, all organs were replaced in their place. All females were separated from their males for some hours due to medical reasons and obtained antibiotics for some days.
Laparotomy analysis was performed to assess endometriotic lesions.

[3] = system: Marmoset monkeys (Callithrix jacchus), established endometriosis; assay: Feeding tree behaviour test; type: in vivo; details: during treatment, all animals
Description: (§3) Different behavioural test systems were used to study pain and discomfort, social comfort, memory, learning and activity were set up. All primates used in the study were familiar with the test-systems (for a period of more than 6 months) to confirm that the obtained results are related to the medication and not a learning effect over time.
(§4) Two test systems were used in the study as described in Arnold et al., J Med Primatol., 40, 317-326 (2011). • 1. Feeding tree • 2. Wisconsin General Testing apparatus (WGTA) Before and during the study documentation of social interaction, such as grooming, were performed.
The feeding tree was to test movement activity associated with pain, discomfort and/or distress. The feeding tree offers food at different positions to reach, which requires different levels of movement. If an animal has discomfort, distress or abdominal pain it will not search for food at upper areas or at all. Moreover, systematic search is reduced if memory is impaired. In the setting, each primate had to empty every reward-containing hideouts within 5 minutes to be fully successful. The response of the 8 animals was graded before, during and after treatment on a scale of 0-4 indicting the number of hideouts emptied within 5 minutes.

[4] = system: Marmoset monkeys (Callithrix jacchus), established endometriosis; assay: Wisconsin General Testing Apparatus (WGTA) memory and learning test; type: in vivo; details: during the treatment, all females
Description: as §3, §4
Memory and learning of the primates were tested. All animals are train-rewarded for the WGTA. The animal, which is sitting in the transport box, is either trained for special figures or places, which hide the reward. The observer can watch the behaviour of the animal, but the animal cannot see the observer.
The 8 animals were tested in the WGTA for memory by remembering either the figure or location of the hidden reward. Wellbeing of a primate is associated with willingness to search for food, which is also included by this test system. The animals have to find the reward underneath the three different figures three times within 5 minutes. Each animal is either trained for the location of the figure or figure itself.

[5] = system: Marmoset monkeys (Callithrix jacchus), established endometriosis; assay: Social interaction (grooming) observation; type: in vivo; details: during treatment compared to before treatment, all animals
Protocol: as §4
The documentation of grooming was carried out by daytime observation. These behaviour observations give information about wellbeing, while grooming is a marker for positive social activity. The social grooming was documented 1 h after breakfast and 1 h after lunch by observing the couples each time for 10 minutes. For each animal, the number of grooming interactions in the observed period was recorded.

[6] = system: Marmoset monkeys (Callithrix jacchus), established endometriosis; assay: General health status: clinical signs and blood chemistry; type: in vivo; details: oral 6.67 mg/kg twice/day for 6 weeks
Protocol: (§5) All animals were weighed weekly before and during the treatment. Health body checks including clinical signs as well as blood chemistry analysis were carried out in a regular manner by the responsible vet.

[7] = system: Marmoset monkeys (Callithrix jacchus), established endometriosis; assay: Reproductive cycle monitoring by serum progesterone; type: in vivo; details: after treatment
Protocol: For analysis of serum progesterone concentration to monitor the reproductive cycle, blood was collected weekly before and during treatment. Serum was separated from blood samples by centrifugation (2600 rpm 10 min, Eppendorf Centrifuge 5810 R) within two hours of sampling and stored at minus 80° C.

[8] = Body weight (weighed weekly); type: in vivo, Marmoset monkeys (Callithrix jacchus); details: during the treatment period; oral 6.67 mg/kg twice/day for 6 weeks
Protocol: as §5

[9] = Week 7 (EoT), individual animals 1-8 (one line each), oral 6.67 mg/kg twice/day for 6 weeks
[10] = Week 7 (EoT), individual animals 1-8 (one line each), oral 6.67 mg/kg twice/day for 6 weeks, 6.67 mg/kg

Blood laboratory parameters ([6]; before and after treatment): in the physiological range
Clinical signs, general health behaviour of the study animals ([6]; during the study period, 8 female marmosets): no changes
SMILES: Cn1c(Nc2c(Cl)ccc(CNC(=O)C(C)(C)C)c2Cl)nc2cc(C(=O)N[C@H]3CC[C@H](C(F)(F)F)CC3)c(OCC(F)F)cc21 [compound of formula I, 2-{2,6-dichloro-3-[(2,2-dimethyl-propionylamino)-methyl]-phenylamino}-6-(2,2-difluoroethoxy)-1-methyl-1H-benzoimidazole-5-carboxylic acid (trans-4-trifluoromethylcyclohexyl)-amide]
Individual data on blood flow bladder ([1]; Week 1): 3 (3×) and 2 (3×) and 1 (2×)
Individual data on blood flow repro tract ([1]; Week 1): 3 and 2 (5×) and 1 (2×)
Blood flow bladder, median score ([1]; Week 1): 2
Blood flow repro tract, median score ([1]; Week 1): 2
Individual data on blood flow bladder ([1]; Week 4): 3 and 2 (3×) and 1 (4×)
Individual data on blood flow repro tract ([1]; Week 4): 2 (3×) and 1 (4×) and 0
Blood flow bladder, median score ([1]; Week 4): 1.5
Blood flow repro tract, median score ([1]; Week 4): 1
Individual data on blood flow bladder ([1]; Week 6): 2 and 1 (7×)
Individual data on blood flow repro tract ([1]; Week 6): 2 (3×) and 1 (3×) and 0 (2×)
Blood flow in reproductive tract (uterus and ovaries) area and bladder area, result in words ([1]; all animals, both areas, oral 6.67 mg/kg twice/day for 6 weeks): Decreased blood flow
Number of endometriotic lesions repro tract, lesion size 2-4 mm [2, 9]: 0
Number of endometriotic lesions repro tract, lesion size >4 mm [2, 9]: 0
Number of endometriotic lesions on the bladder, Total [2, 10]: 4 (2×) and 14 and 24 and 7 and 12 and 5 and 10
Number of endometriotic lesions on the bladder, lesion size 2-4 mm [2, 10]: 0 (6×) and 3 and 5
Number of endometriotic lesions on the bladder, lesion size <2 mm [2, 10]: 0 (4×) and 5 and 12 and 4 and 7
Number of endometriotic lesions on the bladder, lesion size >4 mm [2, 10]: 0 (6×) and 3 and 2
Number of endometriotic lesions on the bladder, lesion size s.p. (visible but not measurable) [2, 10]: 4 and 2 and 5 (2×) and 7 and 0 and 12 and 3
Number of endometriotic lesions repro tract, Total [2, 10]: 0 (2×) and 3 (2×) and 8 and 2 (2×) and 4
Number of endometriotic lesions repro tract, lesion size <2 mm [2, 10]: 0 (5×) and 2 (2×) and 4
Number of endometriotic lesions repro tract, lesion size s.p. (visible but not measurable) [2, 10]: 0 (2×) and 1 and 4 and 3 and 2 (3×)
Endometric foci at laparotomy, result in words ([2]; all animals, all sizes of foci affected, after 6 weeks of treatment): Pronounced reduction
Success rate in the feeding tree (hideouts emptied within 5 minutes, scale 0-4) [3]: improved
WGTA success rate of correct figure or location within time [4]: increased success rate
Grooming interactions [5]: increased
Animals showing irregular cycles ([7]; of 8 animals, before therapy 5 irregular cycles and 1 no activity): 2 animals
Animals showing ovarian cycle activity ([7]; before therapy 2 of 8 animals showed ovarian cycle activity): 6 out of 8
Change in body weight [8]: no significant change
